Reference: ChEMBL document CHEMBL1201862, “PubChem BioAssay data set” (2004)
The source made the active and inactive calls.

Key:
Streptococcus = test: Group A Streptococcus viability loss, dose response, counter-screen for streptokinase expression inhibitor project, luminescence, BacTiterGlo (AID 1915); type: functional, organism-based;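 further: potency for reduction of bacterial viability or growth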
Hexokinase HKDC1 = molecular target: T1, Hexokinase HKDC1 (Homo sapiens, UniProt Q2TB90); test: HKDC1 hexokinase activators, dose response, biochemical, W721R variant (AID 504730); type: functional
T1 sequence (Q2TB90 whole entry): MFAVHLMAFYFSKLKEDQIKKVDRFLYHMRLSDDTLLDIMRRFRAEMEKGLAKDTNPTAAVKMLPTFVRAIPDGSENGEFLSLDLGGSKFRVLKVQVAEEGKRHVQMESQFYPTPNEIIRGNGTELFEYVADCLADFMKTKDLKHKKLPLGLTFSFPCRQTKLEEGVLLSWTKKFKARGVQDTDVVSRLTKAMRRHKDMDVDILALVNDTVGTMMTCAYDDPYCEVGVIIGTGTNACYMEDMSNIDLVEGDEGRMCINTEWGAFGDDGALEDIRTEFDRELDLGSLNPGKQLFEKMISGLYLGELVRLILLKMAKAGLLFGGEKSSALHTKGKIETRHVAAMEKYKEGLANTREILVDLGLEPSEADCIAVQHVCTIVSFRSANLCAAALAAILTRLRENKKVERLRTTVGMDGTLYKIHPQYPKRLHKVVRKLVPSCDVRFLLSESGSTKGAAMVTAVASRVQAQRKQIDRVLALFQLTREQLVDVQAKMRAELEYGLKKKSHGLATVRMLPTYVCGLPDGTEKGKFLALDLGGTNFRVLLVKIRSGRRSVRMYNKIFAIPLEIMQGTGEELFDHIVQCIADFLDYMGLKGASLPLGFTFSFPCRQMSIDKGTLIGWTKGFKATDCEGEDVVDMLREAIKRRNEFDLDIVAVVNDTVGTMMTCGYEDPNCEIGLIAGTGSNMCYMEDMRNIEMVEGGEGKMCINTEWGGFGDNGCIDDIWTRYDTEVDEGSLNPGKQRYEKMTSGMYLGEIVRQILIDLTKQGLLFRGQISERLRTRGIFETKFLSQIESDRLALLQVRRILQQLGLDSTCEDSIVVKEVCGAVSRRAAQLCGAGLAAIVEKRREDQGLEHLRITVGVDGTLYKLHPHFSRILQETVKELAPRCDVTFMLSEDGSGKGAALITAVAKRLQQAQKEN

[1] = HepG2 cell cytotoxicity, dose response, cytotoxicity control for Shn3 inhibitor project, CellTiter-Glo, cherry-picked (AID 624134); type: functional, cell-based
[2] = tested on: Streptococcus sp. 'group A'; test: growth inhibition of control SK(-) GAS strain, dose response, counter-screen for streptokinase expression inhibitor project, luminescence, kanamycin, BacTiterGlo, confirmation (AID 1900); type: functional, organism-based
[3] = control 3'UTR Renilla luciferase suppression, dose response, counter-screen for Shn3 inhibitor project, cell-based, Clone20-Shn3RL, cherry-picked (AID 624133); type: functional
Hexokinase-1 = molecular target: T2, Hexokinase-1 (Homo sapiens, UniProt P19367); test: hexokinase 1 activators, dose response, selectivity assay for HKDC1 activator project, biochemical (AID 504762); type: functional
T2 sequence (P19367 whole entry): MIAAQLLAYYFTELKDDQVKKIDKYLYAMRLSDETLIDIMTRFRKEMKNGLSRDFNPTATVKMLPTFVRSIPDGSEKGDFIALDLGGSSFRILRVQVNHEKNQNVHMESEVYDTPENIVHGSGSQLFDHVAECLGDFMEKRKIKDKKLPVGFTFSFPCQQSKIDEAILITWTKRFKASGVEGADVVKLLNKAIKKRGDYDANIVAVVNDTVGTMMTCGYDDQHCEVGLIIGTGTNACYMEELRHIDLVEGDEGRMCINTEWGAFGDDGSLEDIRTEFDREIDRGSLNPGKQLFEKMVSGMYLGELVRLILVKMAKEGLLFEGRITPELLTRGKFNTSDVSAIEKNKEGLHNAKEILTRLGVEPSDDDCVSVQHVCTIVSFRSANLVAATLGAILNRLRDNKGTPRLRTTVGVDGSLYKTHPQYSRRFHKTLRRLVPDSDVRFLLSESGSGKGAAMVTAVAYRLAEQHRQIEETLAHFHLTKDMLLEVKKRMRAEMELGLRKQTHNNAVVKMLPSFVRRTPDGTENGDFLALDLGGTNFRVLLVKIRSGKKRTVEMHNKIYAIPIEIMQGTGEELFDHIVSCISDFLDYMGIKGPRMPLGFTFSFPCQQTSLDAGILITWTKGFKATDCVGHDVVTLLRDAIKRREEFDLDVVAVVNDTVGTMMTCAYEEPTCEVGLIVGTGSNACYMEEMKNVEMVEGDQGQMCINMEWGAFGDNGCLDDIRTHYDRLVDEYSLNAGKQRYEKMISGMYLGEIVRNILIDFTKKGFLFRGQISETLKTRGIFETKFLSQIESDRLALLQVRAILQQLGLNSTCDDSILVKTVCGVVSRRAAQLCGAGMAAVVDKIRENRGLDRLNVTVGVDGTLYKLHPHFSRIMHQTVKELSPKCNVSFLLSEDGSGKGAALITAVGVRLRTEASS

INS1 = test: beta cell apoptosis inhibitors, cytokine rescue, dose response, luminescence, retest (AID 449756); type: functional, cell-based; conditions: Rattus norvegicus;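 further: cell death triggered by IL-1 beta plus TNF-alpha plus IFN-gamma mixture; protective hits raise ATP signal compared with cytokine alone wells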
Streptokinase A = molecular target: T3, Streptokinase A (Streptococcus pyogenes serotype M1, UniProt P10520); test: S. pyogenes streptokinase expression inhibitors, potency, dose response, plasminogen activation absorbance, OD405 (AID 1914); type: functional, Streptococcus pyogenes M1 GAS;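 further: secreted streptokinase activity via plasminogen activation per viability signal from cell pellet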
T3 sequence (P10520 whole entry): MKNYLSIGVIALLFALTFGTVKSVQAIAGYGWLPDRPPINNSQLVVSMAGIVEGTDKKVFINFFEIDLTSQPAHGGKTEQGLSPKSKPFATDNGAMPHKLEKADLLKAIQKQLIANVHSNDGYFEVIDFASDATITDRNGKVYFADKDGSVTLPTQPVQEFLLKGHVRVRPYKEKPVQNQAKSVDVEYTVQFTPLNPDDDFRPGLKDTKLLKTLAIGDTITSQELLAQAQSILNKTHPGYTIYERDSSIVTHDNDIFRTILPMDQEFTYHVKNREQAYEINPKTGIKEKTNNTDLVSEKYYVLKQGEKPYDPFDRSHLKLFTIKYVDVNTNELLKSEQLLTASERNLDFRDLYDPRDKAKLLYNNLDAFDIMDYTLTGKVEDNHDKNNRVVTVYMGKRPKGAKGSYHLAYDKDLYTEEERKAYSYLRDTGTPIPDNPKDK

[4] = molecular target: Signal transducer and activator of transcription 1-alpha/beta (Homo sapiens, UniProt P42224); test: STAT3 inhibitors, late-stage profile, late-stage follow-up, cell-based, STAT1 panel, qPCR, cytotoxicity, panel member STAT1 Inhibition (AID 2078)
[5] = molecular target: Signal transducer and activator of transcription 3 (Homo sapiens, UniProt P40763); test: STAT3 inhibitors, late-stage profile, late-stage follow-up, cell-based, STAT1 panel, qPCR, cytotoxicity, panel member STAT3 Inhibition (AID 2078)
[6] = molecular target: DNA (cytosine-5)-methyltransferase 1 (Homo sapiens, UniProt P26358); test: DNMT1 methyltransferase inhibitors, confirmation, biochemical, fluorescent molecular beacon (AID 602386); type: functional
[7] = molecular target: Lytic switch protein BZLF1 (Epstein-Barr virus (strain B95-8) (HHV-4) (Human herpesvirus 4), UniProt P03206); test: EBV ZTA inhibitors, dose response, counter-screen for EBNA-1 inhibitor project, biochemical, fluorescence polarization, Epstein-Barr virus, 1536-well (AID 2377); set-up: species or system human gammaherpesvirus 4;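 further: fluorescence polarization of Cy5-labelled ZRE DNA probe bound by purified Zta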
SUMO-activating enzyme [8] = molecular target: T4, SUMO-activating enzyme (Homo sapiens, UniProt Q9UBT2); test: SUMOylation inhibitor hit validation, confirmation, SUMOylation inhibitor project, biochemical, AlphaScreen (AID 2018); type: functional
[9] = molecular target: T5, Voltage-gated N-type calcium channel alpha-1B subunit/Amyloid beta A4 precursor protein-binding family A member 1 (Homo sapiens, UniProt Q00975+Q02410); type: protein assay
SUMO-activating enzyme [10] = molecular target: T4, SUMO-activating enzyme; test: inhibitors of in vitro SUMOylation cascade, primary screen, biochemical, HTRF, uHTS (AID 2006); type: protein-complex assay
[11] = molecular target: Epstein-Barr nuclear antigen 1 (Epstein-Barr virus (strain B95-8) (HHV-4) (Human herpesvirus 4), UniProt P03211); test: EBNA-1 inhibitors, dose response, biochemical, fluorescence polarization, 1536-well (AID 2381); set-up: species or system human gammaherpesvirus 4;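 further: fluorescence polarization of a Cy5 DNA probe bound by EBNA-1 protein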
[12] = molecular target: T6, Low molecular weight phosphotyrosine protein phosphatase (Homo sapiens, UniProt P24666); type: functional; conditions: read-out: IC50_Mean;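 further: Dose-response confirmation assay measuring inhibition of LMPTP enzyme activity by fluorescence intensity read-out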
T6 sequence (P24666 whole entry): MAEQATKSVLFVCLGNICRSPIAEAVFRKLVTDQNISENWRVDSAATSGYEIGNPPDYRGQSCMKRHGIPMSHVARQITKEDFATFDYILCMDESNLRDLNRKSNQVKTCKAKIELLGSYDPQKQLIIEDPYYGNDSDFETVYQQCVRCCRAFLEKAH

[13] = molecular target: T5, Voltage-gated N-type calcium channel alpha-1B subunit/Amyloid beta A4 precursor protein-binding family A member 1; type: protein assay; remark: listed apart in the source

T4 sequence (Q9UBE0 whole entry): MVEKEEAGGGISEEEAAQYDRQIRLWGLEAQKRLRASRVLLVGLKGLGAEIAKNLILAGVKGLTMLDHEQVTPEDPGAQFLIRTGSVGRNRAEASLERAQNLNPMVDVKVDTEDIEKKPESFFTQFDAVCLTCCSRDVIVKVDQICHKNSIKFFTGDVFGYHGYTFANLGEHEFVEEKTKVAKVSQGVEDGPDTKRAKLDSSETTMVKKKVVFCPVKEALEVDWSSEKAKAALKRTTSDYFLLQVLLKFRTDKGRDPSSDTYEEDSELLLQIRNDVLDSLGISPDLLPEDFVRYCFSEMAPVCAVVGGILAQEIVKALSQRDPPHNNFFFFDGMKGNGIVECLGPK
T4 sequence (Q9UBT2 whole entry): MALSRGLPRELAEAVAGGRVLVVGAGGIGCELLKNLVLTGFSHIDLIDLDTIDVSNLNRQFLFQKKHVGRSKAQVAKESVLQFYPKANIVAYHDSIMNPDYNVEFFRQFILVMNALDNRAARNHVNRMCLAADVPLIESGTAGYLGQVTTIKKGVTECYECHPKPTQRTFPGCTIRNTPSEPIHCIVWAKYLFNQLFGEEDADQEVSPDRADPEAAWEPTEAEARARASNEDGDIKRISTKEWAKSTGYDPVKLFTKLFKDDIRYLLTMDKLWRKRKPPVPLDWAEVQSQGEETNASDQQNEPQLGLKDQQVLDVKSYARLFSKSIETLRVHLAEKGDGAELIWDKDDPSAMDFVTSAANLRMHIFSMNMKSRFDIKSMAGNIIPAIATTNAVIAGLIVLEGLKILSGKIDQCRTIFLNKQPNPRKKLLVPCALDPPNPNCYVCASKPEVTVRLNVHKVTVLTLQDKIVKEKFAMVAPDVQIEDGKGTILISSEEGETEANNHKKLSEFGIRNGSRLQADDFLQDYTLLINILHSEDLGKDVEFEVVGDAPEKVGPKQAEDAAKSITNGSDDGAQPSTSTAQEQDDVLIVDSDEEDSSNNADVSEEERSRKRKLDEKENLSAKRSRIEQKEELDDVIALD
T5 sequence (Q00975 whole entry): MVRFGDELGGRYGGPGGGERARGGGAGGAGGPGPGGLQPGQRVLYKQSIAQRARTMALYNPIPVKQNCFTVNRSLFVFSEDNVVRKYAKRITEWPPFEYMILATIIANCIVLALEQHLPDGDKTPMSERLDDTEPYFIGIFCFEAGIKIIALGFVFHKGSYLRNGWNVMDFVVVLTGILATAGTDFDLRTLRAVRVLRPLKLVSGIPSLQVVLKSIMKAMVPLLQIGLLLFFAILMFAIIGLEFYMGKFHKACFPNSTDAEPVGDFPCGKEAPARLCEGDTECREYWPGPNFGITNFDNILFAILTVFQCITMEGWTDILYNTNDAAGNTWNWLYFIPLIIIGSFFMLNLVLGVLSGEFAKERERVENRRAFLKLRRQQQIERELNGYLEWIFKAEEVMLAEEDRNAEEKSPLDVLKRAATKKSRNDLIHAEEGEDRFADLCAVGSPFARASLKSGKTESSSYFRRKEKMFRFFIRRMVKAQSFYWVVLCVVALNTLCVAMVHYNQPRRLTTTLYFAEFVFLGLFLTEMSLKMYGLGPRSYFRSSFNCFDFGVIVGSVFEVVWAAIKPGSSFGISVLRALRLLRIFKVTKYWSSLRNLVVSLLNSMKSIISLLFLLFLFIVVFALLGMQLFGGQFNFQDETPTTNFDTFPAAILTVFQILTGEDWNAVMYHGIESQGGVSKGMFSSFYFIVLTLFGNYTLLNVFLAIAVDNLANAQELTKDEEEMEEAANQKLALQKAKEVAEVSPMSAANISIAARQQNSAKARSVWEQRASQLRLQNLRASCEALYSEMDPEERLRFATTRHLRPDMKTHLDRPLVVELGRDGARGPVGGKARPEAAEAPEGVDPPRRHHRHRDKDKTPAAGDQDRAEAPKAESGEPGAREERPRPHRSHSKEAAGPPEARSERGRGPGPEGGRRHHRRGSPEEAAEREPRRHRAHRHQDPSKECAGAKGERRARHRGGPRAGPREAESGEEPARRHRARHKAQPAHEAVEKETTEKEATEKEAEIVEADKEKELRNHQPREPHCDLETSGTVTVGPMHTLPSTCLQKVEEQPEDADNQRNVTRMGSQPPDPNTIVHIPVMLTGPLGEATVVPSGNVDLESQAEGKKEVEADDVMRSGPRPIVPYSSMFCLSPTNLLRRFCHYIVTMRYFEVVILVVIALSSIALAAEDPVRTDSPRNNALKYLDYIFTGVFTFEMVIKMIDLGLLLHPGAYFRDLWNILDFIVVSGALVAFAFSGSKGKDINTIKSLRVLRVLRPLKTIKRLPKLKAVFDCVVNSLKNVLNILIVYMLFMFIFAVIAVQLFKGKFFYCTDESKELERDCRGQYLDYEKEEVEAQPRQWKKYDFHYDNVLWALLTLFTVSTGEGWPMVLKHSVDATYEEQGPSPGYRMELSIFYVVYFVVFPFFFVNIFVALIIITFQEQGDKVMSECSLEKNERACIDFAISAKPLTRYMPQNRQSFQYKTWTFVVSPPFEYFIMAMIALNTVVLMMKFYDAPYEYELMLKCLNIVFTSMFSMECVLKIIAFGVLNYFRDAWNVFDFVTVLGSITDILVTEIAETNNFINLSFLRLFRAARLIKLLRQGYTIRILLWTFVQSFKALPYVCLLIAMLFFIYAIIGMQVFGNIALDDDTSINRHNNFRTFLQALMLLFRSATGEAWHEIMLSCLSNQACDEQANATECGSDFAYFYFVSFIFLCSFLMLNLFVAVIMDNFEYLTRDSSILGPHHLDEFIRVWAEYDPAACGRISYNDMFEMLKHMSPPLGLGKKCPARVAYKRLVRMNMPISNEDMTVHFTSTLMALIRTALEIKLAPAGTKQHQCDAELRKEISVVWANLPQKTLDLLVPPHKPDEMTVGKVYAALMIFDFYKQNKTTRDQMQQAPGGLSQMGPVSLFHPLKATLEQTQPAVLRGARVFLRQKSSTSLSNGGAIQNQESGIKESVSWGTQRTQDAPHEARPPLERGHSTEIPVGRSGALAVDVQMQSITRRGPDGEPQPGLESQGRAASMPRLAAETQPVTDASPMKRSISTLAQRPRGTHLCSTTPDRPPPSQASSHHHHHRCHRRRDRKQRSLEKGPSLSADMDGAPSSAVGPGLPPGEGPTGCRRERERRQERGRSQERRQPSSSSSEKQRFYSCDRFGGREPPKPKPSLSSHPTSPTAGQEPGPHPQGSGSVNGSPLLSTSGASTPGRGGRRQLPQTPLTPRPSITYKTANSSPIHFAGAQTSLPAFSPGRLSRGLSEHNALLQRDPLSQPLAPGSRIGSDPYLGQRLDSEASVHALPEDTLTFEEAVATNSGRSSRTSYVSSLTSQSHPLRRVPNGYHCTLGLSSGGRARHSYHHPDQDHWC
T5 sequence (Q02410 whole entry): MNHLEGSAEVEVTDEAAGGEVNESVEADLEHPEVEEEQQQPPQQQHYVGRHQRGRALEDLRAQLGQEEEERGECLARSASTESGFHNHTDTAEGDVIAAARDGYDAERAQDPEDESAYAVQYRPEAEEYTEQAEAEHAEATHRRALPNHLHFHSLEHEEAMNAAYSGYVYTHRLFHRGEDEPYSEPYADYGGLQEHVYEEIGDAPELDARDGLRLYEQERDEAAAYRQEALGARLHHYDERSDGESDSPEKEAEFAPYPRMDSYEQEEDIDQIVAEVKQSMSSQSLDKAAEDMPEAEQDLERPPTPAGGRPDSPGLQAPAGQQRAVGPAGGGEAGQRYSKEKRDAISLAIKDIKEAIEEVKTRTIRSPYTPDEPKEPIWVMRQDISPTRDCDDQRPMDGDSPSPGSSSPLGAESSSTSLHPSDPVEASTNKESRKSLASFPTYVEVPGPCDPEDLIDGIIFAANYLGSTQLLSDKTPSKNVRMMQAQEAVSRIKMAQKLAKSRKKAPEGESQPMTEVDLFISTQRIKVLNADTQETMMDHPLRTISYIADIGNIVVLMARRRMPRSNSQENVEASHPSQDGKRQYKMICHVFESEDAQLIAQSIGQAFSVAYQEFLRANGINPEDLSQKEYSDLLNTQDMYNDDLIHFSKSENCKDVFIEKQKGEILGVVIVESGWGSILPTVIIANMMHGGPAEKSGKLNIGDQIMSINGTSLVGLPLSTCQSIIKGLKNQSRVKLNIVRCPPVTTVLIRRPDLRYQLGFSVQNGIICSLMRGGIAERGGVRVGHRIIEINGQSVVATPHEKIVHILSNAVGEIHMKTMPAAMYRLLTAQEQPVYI
Chain of Signal transducer and activator of transcription 3 (P40763 whole entry): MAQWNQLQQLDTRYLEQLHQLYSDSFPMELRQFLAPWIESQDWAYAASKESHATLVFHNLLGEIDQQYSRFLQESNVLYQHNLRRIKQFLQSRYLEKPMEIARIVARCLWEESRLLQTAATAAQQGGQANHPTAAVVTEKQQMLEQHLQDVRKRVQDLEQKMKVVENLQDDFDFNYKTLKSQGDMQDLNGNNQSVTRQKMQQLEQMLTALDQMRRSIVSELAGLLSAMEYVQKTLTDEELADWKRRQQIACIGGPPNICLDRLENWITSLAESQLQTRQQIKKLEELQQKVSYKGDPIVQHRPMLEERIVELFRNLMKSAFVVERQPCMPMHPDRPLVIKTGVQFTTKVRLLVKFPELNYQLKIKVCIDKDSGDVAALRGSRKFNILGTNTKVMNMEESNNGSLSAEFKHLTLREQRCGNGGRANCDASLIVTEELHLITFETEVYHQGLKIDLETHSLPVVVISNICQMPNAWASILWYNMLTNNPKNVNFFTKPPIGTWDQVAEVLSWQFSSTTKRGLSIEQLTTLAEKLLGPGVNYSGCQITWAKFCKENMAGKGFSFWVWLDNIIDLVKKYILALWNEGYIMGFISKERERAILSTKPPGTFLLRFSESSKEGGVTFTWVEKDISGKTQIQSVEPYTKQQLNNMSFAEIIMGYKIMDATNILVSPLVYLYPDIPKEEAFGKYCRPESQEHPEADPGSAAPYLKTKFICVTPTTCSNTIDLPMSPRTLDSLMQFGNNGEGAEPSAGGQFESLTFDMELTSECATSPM

For `Fc1ccccc1NC1=NN=C(c2ccccc2)CS1`, the EC50 (Streptococcus) was 9 µM (active), the EC50 (Hexokinase HKDC1) was 20.2 µM (inactive) and the AC50 [1] was 33.5 µM (active). For the same compound, the EC50 [2] was 4.31 µM (active), the AC50 [3] was 11.1 µM (active) and the EC50 (Hexokinase-1) was 29.7 µM (inactive). The AC50 (INS1) was 7.51 µM (active) and the EC50 (Streptokinase A) was > 150 µM (not active).

For `c1ccc(CC2CCN(c3ncnc4sc5c(c34)CCCC5)CC2)cc1`, the IC50 [4] was > 55.7 µM (inactive) and the IC50 [5] was > 55.7 µM (inactive).

With `O=C(COc1ccc(/C=N/NC(=O)c2ccc(O)cc2)cc1)Nc1ccc([N+](=O)[O-])cc1` the IC50 [6] was 8.43 µM (active), the IC50 [7] was > 111 µM (not active) and the IC50 (SUMO-activating enzyme [8]) was 9.81 µM (active). For the same compound, the IC50 [9] was 9.71 µM (active), the IC50 (SUMO-activating enzyme [10]) was 8.49 µM (active) and the IC50 [11] was 14.5 µM (not active). The IC50 [12] was 9.58 µM (active) and the IC50 [13] was > 50 µM (inactive).
